Experimental findings from PubChem BioAssay (NCI) are described below.

Assay in all cases: NCI anticancer screen, dose series, 48 h
Test [1] has as its system HOP-18 NSCLC.
Test [2] has as its system XF 498 CNS.
Test [3] has as its system KM20L2 colon.
The subject of test [4] is LXFL 529 NSCLC.
Test [5] has as its system M19-MEL melanoma.
Test [6] has as its system DLD-1 colon.
For test [7], the system named is RXF-631 renal.
Test [8] relates to MDA-N.
Test [9] concerns MDA-MB-435.

Structures are written as SMILES.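 Following 48 hours of exposure in 96-well plates, responses at five concentrations were used to interpolate endpoints linearly. GI50 marks 50% less growth. Definition used: TGI = concentration required for complete inhibition of growth.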

As to `CC1(C)CC(=O)C(/C(=N/NC(=S)NN)C(=O)Nc2nc3ccc([N+](=O)[O-])cc3s2)C(=O)C1`, the TGI in [1], in [2], in test [3], in [4], in test [5] and in test [6] was greater than 100 µM throughout.
With `COC(=O)[C@@]1(C(C)CC(=O)O)CCCCC1=O` (some centres not stated), the TGI in test [1], in [2], in [3], in [4], in test [5] and in test [6] was greater than 100 µM in each case.
Take `COc1ccc(-c2cc(C(=O)Nc3ccc(C)c(C)c3)nc(NC#N)n2)cc1`: the TGI in test [1], in [2], in [3], in [4], in test [5] and in test [6] was greater than 100 µM throughout.
For `CCCCC1(C)C=C/C(=C2/C(=O)O/C(=C\C(=O)O)C2=O)O1` (configuration not stated), the TGI in test [1], in test [2], in [3], in [4], in test [5] and in test [7] was greater than 100 µM in each case.
Take `O=C1Nc2ccccc2N=CC1NC(=O)C(c1ccccc1)c1ccccc1` (configuration not stated): the TGI in [1], in test [3], in test [4], in [5], in [6] and in test [7] was greater than 100 µM in each case.
For the compound `N#CC(C#N)c1ccc(C(=O)N2CCC[C@H]2CO)cc1`, the TGI in test [1], in test [3], in [4], in test [5], in test [6] and in test [7] was greater than 100 µM throughout.
With `COCCNC(=O)C1C(=O)C(=O)N(CCOC)C1=O` (configuration not stated), the TGI in test [1], in [3], in test [4], in test [5], in test [6] and in test [7] was greater than 100 µM each time.
Regarding `NC(=O)NNC(=O)NC12CC3CC(CC(C3)C1)C2`, the TGI in test [1], in test [2], in [3], in test [4], in [5] and in test [6] was greater than 100 µM throughout.
Consider `CCC1(O)C(=O)OCc2c1cc1n(c2=O)Cc2cc3c(NC(=O)CN)cccc3nc2-1` (configuration not stated), for which the GI50 in [1] is 1020 nM; in test [2], 2240 nM; in test [3], 1770 nM; in test [8] it was 4.94 µM; in test [4], 5.3 µM; in [9], 5.4 µM. The GI50 in [5] is 1380 nM; in test [6], 11.2 µM. In addition, the TGI in [1] is greater than 24.3 µM; in test [2], 25.4 µM; in test [8], greater than 55.8 µM; in [4], greater than 75 µM; in test [9] it was greater than 70 µM; in test [5], 14.1 µM. In test [6], this compound showed a TGI greater than 100 µM.
Turning to `N#Cc1ccc(C=NC23CC4CC(CC(C4)C2)C3)cc1`, the TGI in [3], in [5] and in test [7] was greater than 100 µM in each case.
With `COc1ccc(/C=C2\CCC(C)(CN(C)C)C2=O)cc1OC` (configuration not stated), the TGI in test [1], in [3], in test [4], in test [5], in test [6] and in test [7] was greater than 100 µM throughout.
With `CC(C)=CC(=O)N(C)C1C2CN3CCC(O2)C13` (configuration not stated), the TGI in test [1], in test [2], in test [3], in [4], in test [5] and in test [6] was greater than 100 µM each time.
Regarding `CCOC(=O)/C(C#N)=C(O)/C(=C\c1ccc(Br)cc1)NC(=O)c1ccccc1`, the TGI in test [1], in test [3], in [4], in test [5], in test [6] and in test [7] was greater than 100 µM each time.
Take `O=S(=O)(/C=C/C(=C/c1ccccc1)S(=O)(=O)c1ccccc1)c1ccccc1`: the TGI in test [2] is 3.09 µM; in test [4], 3.19 µM; in [7], 2.31 µM.
As to `NC(=O)C(=O)C1CCC2=C(Sc3ccccc3N2)C1=O` (configuration not stated), the TGI in test [3], in test [4], in test [5], in [6] and in test [7] was greater than 100 µM throughout.
For the compound `Cc1ccccc1NC(=O)C(=O)C(C#N)c1ccccc1C` (configuration not stated), the TGI in [1], in test [2], in test [3], in test [4] and in test [6] was greater than 100 µM each time.
With `O=c1[nH]cc(F)c(=O)n1C1OC(CO)C(O)C1O` (configuration not stated), the TGI in test [1], in test [2], in [3], in test [4] and in [6] was greater than 100 µM each time.
